Here are results for twelve molecules from PubChem BioAssay (NCI).

As usually defined, the TGI is the concentration giving total growth inhibition.

Some test systems named below: SK-MEL-2 melanoma; HS 578T breast; RPMI-8226 leukemia; A549 NSCLC; IGROV1 ovarian; UACC-62 melanoma; NCI/ADR-RES ovarian; MDA-MB-231 breast; SNB-19 CNS; OVCAR-3 ovarian; HCT-116 colon; LOX IMVI melanoma; NCI-H522 lung; EKVX NSCLC; MDA-MB-435; UACC-257 melanoma; SN12C renal; HT29 colon; MDA-N; SK-MEL-28 melanoma.
What all share (experiment): DTP human tumour cell line panel, 48 h

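Where inhibition never reached the appropriate level, the endpoint shown equals the highest concentration tested. Otherwise, values were interpolated linearly from a five-concentration, 48-hour dose response in 96-well plates. TGI denotes the concentration required for complete inhibition of growth.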

On to `O=C(NCCCCCCCN1CCCCCCC1)C(C1CCCCC1)C1CCCCC1`, for which the TGI in the assay with SK-MEL-2 melanoma is 22.2 µM; in the assay on HS 578T breast it was 51.5 µM; in the assay on RPMI-8226 leukemia it was 6.71 µM; in the assay with A549 NSCLC it was 25.7 µM; with IGROV1 ovarian, 27.3 µM; in the assay with UACC-62 melanoma, 10.1 µM. Besides, the concentration for total growth inhibition (TGI) in the assay on NCI/ADR-RES ovarian came to 25.1 µM; with MDA-MB-231 breast it was 20.8 µM; in the assay with SNB-19 CNS, 27.9 µM; in the assay with OVCAR-3 ovarian, 18.6 µM; in the assay with HCT-116 colon, 21.5 µM; in the assay with LOX IMVI melanoma it was 26.2 µM. For the same molecule, the TGI with NCI-H522 lung was 30.9 µM; in the assay on EKVX NSCLC it was 18.9 µM; with MDA-MB-435 it was 22.2 µM; in the assay with UACC-257 melanoma it was 4.79 µM; in the assay on SN12C renal it was 26.9 µM; in the assay with HT29 colon, 11.7 µM. Moreover, the total growth inhibition concentration (TGI) turned out to be 21.8 µM in the assay with MDA-N and 16.3 µM in the assay on SK-MEL-28 melanoma.
For the molecule `O=C(O)CC12CC3CC(CC(O)(C3)C1)C2`, the TGI was more than 100 µM in the assay on SK-MEL-2 melanoma; 59.9 µM in the assay on HS 578T breast; more than 100 µM in the assay on RPMI-8226 leukemia; more than 100 µM with A549 NSCLC; more than 100 µM in the assay with IGROV1 ovarian; more than 100 µM in the assay on UACC-62 melanoma. Moreover, the TGI with NCI/ADR-RES ovarian, in the assay with MDA-MB-231 breast, in the assay on SNB-19 CNS, in the assay with OVCAR-3 ovarian, in the assay with HCT-116 colon and in the assay on LOX IMVI melanoma was more than 100 µM throughout. Further, the TGI in the assay with NCI-H522 lung is 59.4 µM; in the assay on EKVX NSCLC, more than 100 µM; in the assay with MDA-MB-435, more than 100 µM; in the assay with UACC-257 melanoma it was more than 100 µM; in the assay on SN12C renal it was more than 100 µM; in the assay on HT29 colon, more than 100 µM. In addition, the TGI in the assay with MDA-N and in the assay with SK-MEL-28 melanoma was more than 100 µM throughout.
As for `O=C(/C=C(\Nc1ccccc1O)c1ccc(Br)cc1)C(Cl)(Cl)Cl`, the TGI in the assay with SK-MEL-2 melanoma came to 20.7 µM; with HS 578T breast, 18.1 µM; with RPMI-8226 leukemia, 7.29 µM; in the assay with A549 NSCLC it was 12.4 µM; in the assay with IGROV1 ovarian, 23.7 µM; with UACC-62 melanoma it was 26.3 µM. The TGI in the assay on NCI/ADR-RES ovarian was found to be 25.1 µM; with MDA-MB-231 breast, 20.3 µM; in the assay on SNB-19 CNS, 20.3 µM; in the assay on OVCAR-3 ovarian, 18.5 µM; in the assay with HCT-116 colon it was 22.4 µM; in the assay with LOX IMVI melanoma, 32.9 µM. For the same molecule, the concentration for total growth inhibition (TGI) with NCI-H522 lung was 30.2 µM; with EKVX NSCLC it was 13.9 µM; in the assay on MDA-MB-435, 21.8 µM; in the assay on UACC-257 melanoma, 20.1 µM; in the assay with SN12C renal, 20 µM; in the assay on HT29 colon it was 20.8 µM. The TGI in the assay on MDA-N was 17.3 µM; with SK-MEL-28 melanoma, 24.6 µM.
Take `c1n[nH]cc1C12C3C4C5C3C1C5C42` (stereo not given): the TGI in the assay on SK-MEL-2 melanoma, in the assay with HS 578T breast, in the assay with RPMI-8226 leukemia, in the assay on A549 NSCLC, with IGROV1 ovarian and with UACC-62 melanoma was more than 100 µM each time. For the same molecule, the TGI in the assay on NCI/ADR-RES ovarian, in the assay with MDA-MB-231 breast, in the assay with SNB-19 CNS, in the assay with OVCAR-3 ovarian, in the assay with HCT-116 colon and in the assay with LOX IMVI melanoma was more than 100 µM throughout. The TGI in the assay on NCI-H522 lung, with EKVX NSCLC, in the assay with MDA-MB-435, in the assay with UACC-257 melanoma, in the assay on SN12C renal and with HT29 colon was more than 100 µM in each case. For the same molecule, the TGI in the assay on MDA-N and in the assay on SK-MEL-28 melanoma was more than 100 µM in each case.
In the case of `CSc1c(C#N)c(S)n(-c2ccc(Cl)cc2)c(=O)c1C#N`, the TGI with SK-MEL-2 melanoma, in the assay with HS 578T breast, in the assay with RPMI-8226 leukemia, with A549 NSCLC, with IGROV1 ovarian and with UACC-62 melanoma was more than 100 µM in each case. Also, the TGI in the assay on NCI/ADR-RES ovarian, in the assay on MDA-MB-231 breast, in the assay on SNB-19 CNS, in the assay on OVCAR-3 ovarian, with HCT-116 colon and in the assay on LOX IMVI melanoma was more than 100 µM in each case. Also, the total growth inhibition concentration (TGI) in the assay on NCI-H522 lung, in the assay with EKVX NSCLC, with MDA-MB-435, in the assay with UACC-257 melanoma, in the assay with SN12C renal and with HT29 colon was more than 100 µM throughout. In addition, the TGI in the assay with MDA-N and in the assay on SK-MEL-28 melanoma was more than 100 µM each time.
Turning to `Nc1[nH]c(=O)[nH]c(=O)c1Cc1cccc(Cl)c1`, the concentration for total growth inhibition (TGI) with SK-MEL-2 melanoma, with HS 578T breast, with RPMI-8226 leukemia, with A549 NSCLC, in the assay with IGROV1 ovarian and with UACC-62 melanoma was more than 100 µM throughout. Also, the TGI in the assay with NCI/ADR-RES ovarian, in the assay with MDA-MB-231 breast, in the assay with SNB-19 CNS, in the assay on OVCAR-3 ovarian, in the assay on HCT-116 colon and in the assay on LOX IMVI melanoma was more than 100 µM each time. The TGI with NCI-H522 lung, in the assay on EKVX NSCLC, with MDA-MB-435, in the assay with UACC-257 melanoma, in the assay on SN12C renal and in the assay with HT29 colon was more than 100 µM throughout. Moreover, the TGI in the assay on MDA-N and with SK-MEL-28 melanoma was more than 100 µM in each case.
As to `CCCC(=O)OCOC(=O)N(C)N=Nc1ccc(C(=O)OCC)cc1`, the TGI in the assay with SK-MEL-2 melanoma was 36.3 µM; in the assay with HS 578T breast, 85.7 µM; in the assay on RPMI-8226 leukemia, more than 100 µM; with A549 NSCLC it was more than 100 µM; in the assay on IGROV1 ovarian it was more than 100 µM; in the assay with UACC-62 melanoma, 44.2 µM. In addition, the TGI in the assay on NCI/ADR-RES ovarian is more than 100 µM; with MDA-MB-231 breast it was more than 100 µM; with SNB-19 CNS, more than 100 µM; in the assay on OVCAR-3 ovarian, more than 100 µM; in the assay with HCT-116 colon, 46.6 µM; in the assay on LOX IMVI melanoma, 37 µM. The total growth inhibition concentration (TGI) in the assay with NCI-H522 lung was 38 µM; in the assay with EKVX NSCLC, more than 100 µM; in the assay with MDA-MB-435, more than 100 µM; with UACC-257 melanoma it was more than 100 µM; in the assay with SN12C renal, 76.7 µM; with HT29 colon, 41.6 µM. Moreover, the TGI in the assay on MDA-N and in the assay on SK-MEL-28 melanoma was more than 100 µM each time.
Take `Cc1cccc(CNc2ncnc3[nH]ncc23)c1`: the TGI in the assay on SK-MEL-2 melanoma, with HS 578T breast, in the assay on RPMI-8226 leukemia, with A549 NSCLC, in the assay on IGROV1 ovarian and with UACC-62 melanoma was more than 100 µM throughout. Besides, the TGI with NCI/ADR-RES ovarian, with MDA-MB-231 breast, in the assay on SNB-19 CNS, in the assay with OVCAR-3 ovarian, with HCT-116 colon and in the assay on LOX IMVI melanoma was more than 100 µM in each case. Moreover, the TGI in the assay with NCI-H522 lung, in the assay with EKVX NSCLC, in the assay on MDA-MB-435, with UACC-257 melanoma, with SN12C renal and in the assay on HT29 colon was more than 100 µM throughout. Moreover, the TGI in the assay with MDA-N and with SK-MEL-28 melanoma was more than 100 µM throughout.
Regarding `O=c1[nH]c(=O)n(C2C(CO)OC(CO)C2O)cc1F` (stereo not given), the TGI with SK-MEL-2 melanoma, with HS 578T breast, in the assay on RPMI-8226 leukemia, in the assay on A549 NSCLC, in the assay on IGROV1 ovarian and in the assay on UACC-62 melanoma was more than 100 µM each time. The concentration for total growth inhibition (TGI) in the assay with NCI/ADR-RES ovarian, in the assay with MDA-MB-231 breast, with SNB-19 CNS, with OVCAR-3 ovarian, with HCT-116 colon and in the assay with LOX IMVI melanoma was more than 100 µM throughout. The TGI in the assay on NCI-H522 lung, with EKVX NSCLC, in the assay with MDA-MB-435, in the assay on UACC-257 melanoma, in the assay with SN12C renal and in the assay on HT29 colon was more than 100 µM throughout. For the same molecule, the TGI in the assay on MDA-N and in the assay with SK-MEL-28 melanoma was more than 100 µM throughout.
On to `Cc1ccc(S(=O)(=O)N2CC(CCN)c3ccccc32)cc1` (stereo not given), for which the TGI is 13.4 µM in the assay with SK-MEL-2 melanoma; 54.5 µM in the assay with HS 578T breast; more than 63.6 µM in the assay on RPMI-8226 leukemia; 32.5 µM with A549 NSCLC; more than 53.4 µM with IGROV1 ovarian; 11.7 µM with UACC-62 melanoma. For the same molecule, the TGI with NCI/ADR-RES ovarian stood at 17 µM; in the assay on MDA-MB-231 breast, 29.9 µM; with SNB-19 CNS, 31.3 µM; in the assay with OVCAR-3 ovarian, 26.2 µM; in the assay on HCT-116 colon, 25.6 µM; in the assay on LOX IMVI melanoma it was 13.5 µM. Further, the TGI in the assay with NCI-H522 lung was 14.6 µM; in the assay on EKVX NSCLC, 82.4 µM; in the assay with MDA-MB-435 it was 27.1 µM; with UACC-257 melanoma, 33.9 µM; in the assay on SN12C renal it was 10.7 µM; in the assay on HT29 colon, 8.14 µM. Moreover, the TGI in the assay on MDA-N came out at 11 µM; in the assay with SK-MEL-28 melanoma, 34.7 µM.
As to `Cc1ccc(/N=N/C(=NNC(=O)c2ccc(C)cc2)c2ccc(N(C)C)cc2)cc1`, the TGI was more than 100 µM in the assay with SK-MEL-2 melanoma; more than 100 µM with HS 578T breast; 70.5 µM in the assay on RPMI-8226 leukemia; 87.9 µM with A549 NSCLC; more than 100 µM in the assay on IGROV1 ovarian; 23.4 µM in the assay with UACC-62 melanoma. In addition, the total growth inhibition concentration (TGI) with NCI/ADR-RES ovarian is more than 100 µM; with MDA-MB-231 breast, more than 100 µM; with SNB-19 CNS it was 58.7 µM; in the assay on OVCAR-3 ovarian, 54.2 µM; in the assay on HCT-116 colon it was 68.2 µM; in the assay on LOX IMVI melanoma, more than 100 µM. Also, the TGI was 49.9 µM in the assay with NCI-H522 lung; more than 100 µM in the assay with EKVX NSCLC; 39.5 µM with MDA-MB-435; 60 µM in the assay with UACC-257 melanoma; 68.5 µM in the assay with SN12C renal; 91.3 µM in the assay on HT29 colon. The TGI in the assay with MDA-N is 46.1 µM; with SK-MEL-28 melanoma it was more than 100 µM.
For the molecule `CCCCN(C)C(=O)C1=C(C)NC(C)=C(C(=O)N(C)CCCC)C1`, the TGI in the assay on SK-MEL-2 melanoma, in the assay on HS 578T breast, with RPMI-8226 leukemia, in the assay on A549 NSCLC, in the assay with IGROV1 ovarian and with UACC-62 melanoma was more than 100 µM each time. Further, the TGI in the assay on NCI/ADR-RES ovarian, in the assay on MDA-MB-231 breast, in the assay on SNB-19 CNS, with OVCAR-3 ovarian, in the assay on HCT-116 colon and with LOX IMVI melanoma was more than 100 µM each time. The TGI with NCI-H522 lung, with EKVX NSCLC, with MDA-MB-435, in the assay with UACC-257 melanoma, in the assay with SN12C renal and in the assay with HT29 colon was more than 100 µM throughout. Further, the concentration for total growth inhibition (TGI) with MDA-N and with SK-MEL-28 melanoma was more than 100 µM throughout.
